Literature values, collected in patent US20120316143A1, “Ophthalmic composition” (priority 2009, published 2012).
Like-named read-outs stand apart in the source and are kept apart here.

Tests used:
patients = details: applied topically as a 1% suspension
[1] = system: normal subjects; patients with ocular hypertension
[2] = system: rabbits made ocularly hypertensive with dexamethasone

## C[C@]12CC[C@@H](O)C[C@H]1CC[C@@H]1[C@@H]2[C@@H](O)C[C@@]2(C)[C@H]1CC[C@]2(O)C(=O)CO [3-α-5-β-Tetrahydrocortisol]
patients
  effect on intraocular pressure: lower intraocular pressure

## CC1(C)[C@@H](OC(=O)CCC(=O)O)CC[C@]2(C)[C@H]3C(=O)C=C4[C@@H]5C[C@@](C)(C(=O)O)CC[C@]5(C)CC[C@@]4(C)[C@]3(C)CC[C@@H]12 [Carbenoxolone]
[1]; normal subjects
  decrease in intraocular pressure: 20%
[1]; patients with ocular hypertension
  decrease in intraocular pressure: 20%

## C[C@]12CC[C@@H](O)C[C@H]1CC[C@@H]1[C@@H]2[C@@H](O)C[C@@]2(C)[C@H]1CC[C@]2(O)C(=O)CO [Tetrahydrocortisol, tetrahydrocortisol]
[2]
  effect on intraocular pressure (IOP): lower intraocular pressure
